Values of other authors as cited in patent publication US8645075B2, “Method for predicting organ toxicity and a system thereof” (Strand Life Sciences PVT Ltd., priority 2008, dated 2014).
Like-named read-outs stand apart in the source and are kept apart here.

Assays:
[1] = target: T1, CPT1 (Homo sapiens, UniProt P50416)
T1 sequence (P50416 1-773): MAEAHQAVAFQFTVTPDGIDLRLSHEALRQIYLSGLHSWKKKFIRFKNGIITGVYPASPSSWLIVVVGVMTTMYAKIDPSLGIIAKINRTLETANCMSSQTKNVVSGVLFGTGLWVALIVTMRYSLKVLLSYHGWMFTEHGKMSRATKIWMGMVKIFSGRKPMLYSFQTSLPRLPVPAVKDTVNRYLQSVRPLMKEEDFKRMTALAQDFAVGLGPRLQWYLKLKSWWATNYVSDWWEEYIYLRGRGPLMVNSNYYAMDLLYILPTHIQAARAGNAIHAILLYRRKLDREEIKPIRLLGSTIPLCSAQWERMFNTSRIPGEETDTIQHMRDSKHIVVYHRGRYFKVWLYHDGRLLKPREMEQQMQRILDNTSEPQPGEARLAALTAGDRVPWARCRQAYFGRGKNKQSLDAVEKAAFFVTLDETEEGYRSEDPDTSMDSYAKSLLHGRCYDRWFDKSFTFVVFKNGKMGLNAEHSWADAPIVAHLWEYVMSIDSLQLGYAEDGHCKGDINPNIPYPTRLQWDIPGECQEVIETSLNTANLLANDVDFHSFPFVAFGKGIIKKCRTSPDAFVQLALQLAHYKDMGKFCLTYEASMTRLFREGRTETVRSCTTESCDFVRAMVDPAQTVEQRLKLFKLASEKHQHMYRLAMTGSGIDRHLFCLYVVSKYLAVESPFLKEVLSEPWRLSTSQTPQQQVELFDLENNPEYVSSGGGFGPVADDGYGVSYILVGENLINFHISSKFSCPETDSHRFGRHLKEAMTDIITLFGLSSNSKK

[2] = system: FoF1 ATPase; settings: experimental value used for model validation

SMILES: CCCCc1oc2ccccc2c1C(=O)c1cc(I)c(OCCN(CC)CC)c(I)c1 [Amiodarone]
- Triglyceride accumulation, Experiment ([1]; experimental value used for model validation): 150%

SMILES: C=C(C)[C@]12C[C@@H](C)[C@@]34O[C@](c5ccccc5)(O[C@@H]1[C@@H]3[C@@H]1O[C@]1(CO)[C@@H](O)[C@]1(O)C(=O)C(C)=C[C@H]14)O2 [Daphnetoxin]
- EC value (Energy Charge), Experiment [2]: 0.52

SMILES: C1CCC(C(CC2CCCCN2)C2CCCCC2)CC1 (stereo not drawn) [Perhexilline]
- Triglyceride accumulation, Experiment [1]: 98%
